Test results as given in patent US10316017B2, “COT modulators and methods of use thereof” (Gilead Sciences, Inc., priority 2015, dated 2019).
pEC50, pIC50: −log10 of the molar value.

How the values were obtained:
[1] = system: TNFα production in LPS-stimulated human monocytes; assay: Cot Monocyte TNFα Cell Based Assay; conditions: Homo sapiens, Monocyte, TNFα in LPS-stimulated human monocytes; read-out: EC50 TNF
Method in brief: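 Cells at 5,000/well were pretreated with compound for 1 h at 37 °C (0.5% DMSO final), then stimulated with 50 pg/ml LPS for 4 h at 37 °C. Supernatant TNFα was measured by two-antibody TR-FRET after overnight room-temperature incubation; values are percent of control between unstimulated and stimulated wells.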

[2] = target: T1, human Cot catalytic domain (30-397 amino acids) (Homo sapiens, UniProt P41279); assay: High Throughput Cot Biochemical Assay (KinEASE TR-FRET); conditions: Cot biochemical HTRF (KinEASE TR-FRET) assay; read-out: IC50 HTRF
T1 construct: Purified recombinant human Cot catalytic domain (30-397 amino acids) was purchased from Cama Biosciences; purchased Cama Biosciences (so in the source)
Method in brief: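 Reaction of 5 nM recombinant human Cot catalytic domain (aa 30-397) with 1 μM STK3 peptide (XL665-labeled) and 400 μM ATP in 10 mM MOPS pH 7.0, 10 mM MgOAc, 1 mM DTT, 0.5 mg/mL BSA, 0.1% DMSO. Phosphopeptide detected by TR-FRET with europium anti-phospho antibody.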

T1 sequence (P41279 30-397): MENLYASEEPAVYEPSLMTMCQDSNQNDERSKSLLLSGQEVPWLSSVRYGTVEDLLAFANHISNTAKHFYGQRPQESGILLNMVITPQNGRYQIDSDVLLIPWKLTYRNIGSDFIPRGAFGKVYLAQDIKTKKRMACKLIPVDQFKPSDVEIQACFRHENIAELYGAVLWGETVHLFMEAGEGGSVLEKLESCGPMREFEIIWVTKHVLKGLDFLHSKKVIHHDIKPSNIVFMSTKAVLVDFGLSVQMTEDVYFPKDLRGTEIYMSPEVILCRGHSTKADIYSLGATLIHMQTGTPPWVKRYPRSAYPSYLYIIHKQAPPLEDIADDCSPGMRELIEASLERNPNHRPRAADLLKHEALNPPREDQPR

Row | SMILES | pEC50 [1] | pIC50 [2]
1 | N#Cc1cnc2c(Cl)cc(N[C@@H](c3ccccc3)c3cn([C@@H]4CCN(C5COC5)C[C@H]4O)nn3)cc2c1Nc1cccc(Cl)c1 [Example 517, 8-chloro-4-((3-chlorophenyl)amino)-6-(((S)-(1-((3R,4R)-3-hydroxy-1-(oxetan-3-yl)piperidin-4-yl)-1H-1,2,3-triazol-4-yl)(phenyl)methyl)amino) quinoline-3-carbonitrile] | 6.59 | 8.00
2 | N#Cc1cnc2c(Cl)cc(N[C@@H](c3cccc(CN4CC(F)(F)C4)c3)c3c[nH]nn3)cc2c1Nc1ccc(Cl)c(Cl)c1F [Example 518, (S)-8-chloro-4-((3,4-dichloro-2-fluorophenyl)amino)-6-(((3-((3,3-difluoroazetidin-1-yl)methyl)phenyl)(1H-1,2,3-triazol-4-yl)methyl)amino) quinoline-3-carbonitrile] | 6.24 | 7.28
3 | N#Cc1cnc2c(Cl)cc(NC(c3ccccc3)c3nn[nH]c3CN3CCOCC3)cc2c1Nc1ccc(F)c(Cl)c1 (centres unmarked) [Example 519, 8-chloro-4-((3-chloro-4-fluorophenyl)amino)-6-(((5-(morpholinomethyl)-1H-1,2,3-triazol-4-yl)(phenyl)methyl)amino) quinoline-3-carbonitrile] | 5.50 | 6.52
4 | CC(C)(C)N1CCC(n2cc([C@@H](Nc3cc(Cl)c4ncc(C#N)c(NS(=O)(=O)c5ccccc5)c4c3)c3ccccc3)nn2)CC1 [Example 520, (S)-N-(6-(((1-(1-(tert-butyl)piperidin-4-yl)-1H-1,2,3-triazol-4-yl)(phenyl)methyl)amino)-8-chloro-3-cyanoquinolin-4-yl)benzenesulfonamide] | < 5.00 | < 5.00
5 | CC(C)(C)N1CCC(n2cc([C@@H](Nc3cc(Cl)c4ncc(C#N)c(Nc5cnc(Cl)c(F)c5)c4c3)c3ccccc3)nn2)CC1 [Example 521, (S)-6-(((1-(1-(tert-butyl)piperidin-4-yl)-1H-1,2,3-triazol-4-yl)(phenyl)methyl)amino)-8-chloro-4-((6-chloro-5-fluoropyridin-3-yl)amino)quinoline-3-carbonitrile] | 6.03 | 7.39
6 | C[C@H](Nc1c(C#N)cnc2c(Cl)cc(N[C@@H](c3ccccc3)c3cn(C4CCN(C(C)(C)C)CC4)nn3)cc12)C1CCOCC1 [Example 522, 6-(((S)-(1-(1-(tert-butyl)piperidin-4-yl)-1H-1,2,3-triazol-4-yl)(phenyl)methyl)amino)-8-chloro-4-(((S)-1-(tetrahydro-2H-pyran-4-yl)ethyl)amino)quinoline-3-carbonitrile] | 5.01 | 6.10
7 | C[C@@H](Nc1c(C#N)cnc2c(Cl)cc(N[C@@H](c3ccccc3)c3cn(C4CCN(C(C)(C)C)CC4)nn3)cc12)C1CCCCC1 [Example 523, 6-(((S)-(1-(1-(tert-butyl)piperidin-4-yl)-1H-1,2,3-triazol-4-yl)(phenyl)methyl)amino)-8-chloro-4-(((R)-1-cyclohexylethyl)amino) quinoline-3-carbonitrile] | 5.31 | 6.52
8 | C[C@@H](Nc1c(C#N)cnc2c(Cl)cc(N[C@@H](c3ccccc3)c3cn(C4CCN(C(C)(C)C)CC4)nn3)cc12)C1CCOCC1 [Example 524, 6-(((S)-(1-(1-(tert-butyl)piperidin-4-yl)-1H-1,2,3-triazol-4-yl)(phenyl)methyl)amino)-8-chloro-4-(((R)-1-(tetrahydro-2H-pyran-4-yl)ethyl)amino) quinoline-3-carbonitrile] | < 5.00 | 6.10
9 | CC(C)(C)N1CCC(n2cc([C@@H](Nc3cc(Cl)c4ncc(C#N)c(Nc5ccc(F)c(OC(F)(F)F)c5)c4c3)c3ccccc3)nn2)CC1 [Example 525, (S)-6-(((1-(1-(tert-butyl)piperidin-4-yl)-1H-1,2,3-triazol-4-yl)(phenyl)methyl)amino)-8-chloro-4-((4-fluoro-3-(trifluoromethoxy)phenyl)amino)quinoline-3-carbonitrile] | 5.37 | 6.14
10 | CC(C)(C)N1CCC(n2cc([C@@H](Nc3cc(Cl)c4ncc(C#N)c(Nc5cccc(Cl)c5Cl)c4c3)c3ccccc3)nn2)CC1 [Example 526, (S)-6-(((1-(1-(tert-butyl)piperidin-4-yl)-1H-1,2,3-triazol-4-yl)(phenyl)methyl)amino)-8-chloro-4-((2,3-dichlorophenyl)amino) quinoline-3-carbonitrile] | 6.30 | 7.62
11 | CC(C)(C)N1CCC(n2cc([C@@H](Nc3cc(Cl)c4ncc(C#N)c(Nc5cc(Cl)ccc5Cl)c4c3)c3ccccc3)nn2)CC1 [Example 527, (S)-6-(((1-(1-(tert-butyl)piperidin-4-yl)-1H-1,2,3-triazol-4-yl)(phenyl)methyl)amino)-8-chloro-4-((2,5-dichlorophenyl)amino) quinoline-3-carbonitrile] | 5.86 | 7.28
12 | N#Cc1cnc2c(Cl)cc(N[C@@H](c3cccc(N4CCCS4(=O)=O)c3)c3c[nH]nn3)cc2c1Nc1ccc(Cl)c(Cl)c1F [Example 528, (S)-8-chloro-4-((3,4-dichloro-2-fluorophenyl)amino)-6-(((3-(1,1-dioxidoisothiazolidin-2-yl)phenyl)(1H-1,2,3-triazol-4-yl)methyl)amino)quinoline-3-carbonitrile] | 6.08 | 7.27
13 | N#Cc1cnc2c(Cl)cc(N[C@@H](c3ccccc3)c3cn(C4[C@H]5CNC[C@@H]45)nn3)cc2c1Nc1ccc(F)c(Cl)c1 (stereo partly drawn) [Example 529, 6-(((S)-(1-((1R,5S,6s)-3-azabicyclo[3.1.0]hexan-6-yl)-1H-1,2,3-triazol-4-yl)(phenyl)methyl)amino)-8-chloro-4-((3-chloro-4-fluorophenyl)amino) quinoline-3-carbonitrile] | 7.15 | 8.70
14 | CC[N+](C)(CC)CCn1cc([C@@H](Nc2cc(Cl)c3ncc(C#N)c(Nc4ccc(Cl)c(Cl)c4F)c3c2)c2ccccc2)nn1 [Example 530, (S)-2-(4-(((8-chloro-3-cyano-4-((3,4-dichloro-2-fluorophenyl)amino)quinolin-6-yl)amino)(phenyl)methyl)-1H-1,2,3-triazol-1-yl)-N,N-diethyl-N-methylethan-1-aminium] | < 5.00 | 6.70
15 | N#Cc1cnc2c(Cl)cc(N[C@@H](c3cccc(N4CCCC4=O)c3)c3c[nH]nn3)cc2c1Nc1ccc(Cl)c(Cl)c1F [Example 531, (S)-8-chloro-4-((3,4-dichloro-2-fluorophenyl)amino)-6-(((3-(2-oxopyrrolidin-1-yl)phenyl)(1H-1,2,3-triazol-4-yl)methyl)amino)quinoline-3-carbonitrile] | 6.31 | 7.80
16 | CC[C@@H](Nc1c(C#N)cnc2c(Cl)cc(N[C@@H](c3c[nH]nn3)c3ccccc3Cl)cc12)c1ccccc1 [Example 532, 8-chloro-6-(((R)-(2-chlorophenyl)(1H-1,2,3-triazol-4-yl)methyl)amino)-4-(((R)-1-phenylpropyl)amino)quinoline-3-carbonitrile] | < 5.00 | < 5.00
17 | CC[C@@H](Nc1c(C#N)cnc2c(Cl)cc(N[C@H](c3c[nH]nn3)c3ccccc3Cl)cc12)c1ccccc1 [Example 533, 8-chloro-6-(((S)-(2-chlorophenyl)(1H-1,2,3-triazol-4-yl)methyl)amino)-4-(((R)-1-phenylpropyl)amino) quinoline-3-carbonitrile] | 6.18 | 7.14
18 | N#Cc1cnc2c(Cl)cc(N[C@@H](c3ccccc3)c3cn(C4CCCC4)nn3)cc2c1Nc1ccc(Cl)c(Cl)c1F [Example 534, (S)-8-chloro-6-(((1-cyclopentyl-1H-1,2,3-triazol-4-yl)(phenyl)methyl)amino)-4-((3,4-dichloro-2-fluorophenyl)amino) quinoline-3-carbonitrile] | 5.50 | 7.24
19 | N#Cc1cnc2c(Cl)cc(N[C@@H](c3ccccc3)c3cn([C@@H]4CCNC[C@H]4O)nn3)cc2c1Nc1cccc(Cl)c1 [Example 535, 8-chloro-4-((3-chlorophenyl)amino)-6-(((S)-(1-((3R,4R)-3-hydroxypiperidin-4-yl)-1H-1,2,3-triazol-4-yl)(phenyl)methyl)amino) quinoline-3-carbonitrile] | 6.30 | 8.40
20 | CC[C@@H](Nc1c(C#N)cnc2c(Cl)cc(N[C@@H](c3ccccc3)c3cn(CCCN4CCCC4)nn3)cc12)c1ccccc1 [Example 536, 8-chloro-6-(((S)-phenyl (1-(3-(pyrrolidin-1-yl)propyl)-1H-1,2,3-triazol-4-yl)methyl)amino)-4-(((R)-1-phenylpropyl)amino)quinoline-3-carbonitrile] | 7.08 | 8.52
21 | CC[C@@H](Nc1c(C#N)cnc2c(Cl)cc(N[C@@H](c3ccc(F)cc3)c3c[nH]nn3)cc12)c1ccccc1 [Example 537, 8-chloro-6-(((S)-(4-fluorophenyl)(1H-1,2,3-triazol-4-yl)methyl)amino)-4-(((R)-1-phenylpropyl)amino) quinoline-3-carbonitrile] | 6.34 | 7.77
22 | CC[C@@H](Nc1c(C#N)cnc2c(Cl)cc(N[C@@H](c3ccc(F)cc3)c3cn(C4CCN(C(C)(C)C)CC4)nn3)cc12)c1ccccc1 [Example 538, 6-(((S)-(1-(1-(tert-butyl)piperidin-4-yl)-1H-1,2,3-triazol-4-yl)(4-fluorophenyl)methyl)amino)-8-chloro-4-(((R)-1-phenylpropyl)amino) quinoline-3-carbonitrile] | 7.24 | 8.52
